Reference: patent US8476433B2, “Agent exhibiting the properties of a cognitive function promoter (embodiments)” (Unikorm, priority 2010, dated 2013)

Columns and labels:
[1] = test system: learning and memory of mice, scopolamine-induced amnesia; assay: Conditioned passive avoidance response (CPAR), step down method, in model of amnesia induced by scopolamine and undertraining; type: in vivo; settings: for Number of animals with CPAR (%): male mice; for effect on learning and memory during scopolamine-induced amnesia: mice, i/p before or immediately after training, tested after 2 hours and 24 hours
From the text: In order to study the activity of the synthesized compounds in vivo one of the most used methodologies of examination and assessment of activation of cognitive functions was used—improvement or easier development of conditioned passive avoidance response (CPAR) in animals. From the time of study of cognitive properties of nootropil and up to the present time, conditioned passive avoidance response (CPAR) is used more often than other behavioral procedures for studying and screening of drugs affecting the processes of learning and memory in rodents. CPAR is used for studying the action of drugs on learning (if the tested drug is administered before a training session), on saving or retention in memory (if the drug is administered after the training) and on memory retrieval (administering drugs before memory testing). This method is also used to study and test substances in models of disorders of learning and memory, caused by experimental brain dysfunction (GABA, cholinergic, induced by cholinergic toxin AF64A), alcohol-benzodiazepine induced, electrocution induced, hypoxia induced and age-related amnesias, inhibition of protein synthesis, etc..
Comparative study of the effects of compounds 1 and 2 on learning and memory of mice in tests of conditioned passive avoidance response (CPAR) in model of amnesia, induced by the administration of scopolamine—a blocker of central cholinergic receptors.
Studies were performed using 470 male mice, body mass 20-22 g, using 20 animals for one dose. CPAR conditioning of mice was performed using step down method, in a cell with electrode floor and avoidance area. Parameters of electric stimulation for animals leaving the safety area were 50 V during 3-5 sec. The criterion of learning and memory was the staying of the animal in the area during 1 minute when testing 2 hours after training and 24 hours after training.
Learning deficit was induced by the administration of scopolamine (1.0 mg/kg, intraperitoneal) 15 minutes before the training and by reduction in the number of animal training sessions to 2 instead of 5 (undertraining).
The duration of the mnemotropic action of the compounds in conditions of learning deficit was assessed by the number of animals in a group (in percents), staying in safety zone (with immobilization).
To assess their action of different phases of memory development (fixation, consolidation and reproduction) the tested compounds were administered before the training (before scopolamine) and immediately after the training. The tested compounds were administered intraperitoneally using 2 schedules: […] and, correspondingly, 5 minutes before scopolamine, second—compounds in the same doses right after the training. Control was parallel in each series of experiments: one control group received saline solution instead of the tested compounds and scopolamine, second control group—scopolamine, using the same schedule and doses.
Statistical analysis was conducted with significance of difference from negative control at p<0.05.

Acute toxicity i/p = settings: for Therapeutic index LD50/Min. ED: LD50 i/p / minimum effective dose in CPAR; for LD50: in vivo, intraperitoneal
[2] = dose 0.01 mg/kg i/p, scopolamine 1.0 mg/kg i/p amnesia
[3] = dose 0.1 mg/kg i/p, scopolamine 1.0 mg/kg i/p amnesia
[4] = dose 1.0 mg/kg i/p, scopolamine 1.0 mg/kg i/p amnesia
[5] = dose 10.0 mg/kg i/p, scopolamine 1.0 mg/kg i/p amnesia

Structure (SMILES) | learning ability (animals staying in safety area) after scopolamine ([1]; scopolamine 1.0 mg/kg i/p 15 minutes before training plus undertraining, average, controls about 80%) [%] | Number of animals with CPAR (%) ([1]; scopolamine alone 1.0 mg/kg i/p (amnesia control group)) | Number of animals with CPAR (%) [1, 2] [%] | Number of animals with CPAR (%) [1, 3] [%] | Number of animals with CPAR (%) [1, 4] [%] | Number of animals with CPAR (%) [1, 5] [%] | effect on learning and memory during scopolamine-induced amnesia [1] | Therapeutic index LD50/Min. ED (Acute toxicity i/p) | LD50 (Acute toxicity i/p) [mg/kg]
CN1[C@@H]2C[C@@H](OC(=O)[C@H](CO)c3ccccc3)C[C@H]1[C@@H]1O[C@@H]12 [Scopolamine, scopolamine, reference compound] | 28 | 35 | – | – | – | – | – | – | –
Nc1cc[n+](-c2nccc3c2cc([N+](=O)[O-])c(=O)n3-c2ccccc2)cc1 [Compound 2, 4-amino-1-(3-nitro-2-oxo-1-pheny-1,2-dihydro-1,6-naphthyridin-5-yl)pyridinium chloride] | – | – | 60 | 80 | 70 | 60 | improved learning and memory | 10770 | 108 ± 14.1
CN1C(=O)C(=CNc2ccncc2)C(=O)N(C)C1=O [Compound 1, 1,3-dimethyl-5-[(4-pyridylamino)methylene]barbituric acid] | – | – | 90.0 | 80.0 | 60.0 | 50.0 | improved learning and memory | 1530 | 15.3 ± 2.6
